In ChEMBL document CHEMBL1201862, “PubChem BioAssay data set” (2004):
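Where inhibition never reached the appropriate level, the endpoint shown equals the highest concentration tested. Otherwise, values were interpolated linearly from a five-concentration, 48-hour dose response in 96-well plates. At the GI50, growth is halved.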 The source made the active and inactive calls. No stated cut-off is given here; in the data, active = GI50 up to about 1.1 µM and inactive = higher.

How the values were obtained:
Experiment in all cases: inhibition of tumour cell growth, NCI panel, 48 h
OVCAR-4 = tested on: OVCAR-4
TK-10 = tested on: TK-10
SF-539 = tested on: SF-539
OVCAR-5 = tested on: OVCAR-5
SNB-19 = tested on: SNB-19
SR = tested on: SR
A549 = tested on: A549
K562 = tested on: K562
UACC-257 = tested on: UACC-257
M14 = tested on: M14
IGROV-1 = tested on: IGROV-1
LOX IMVI = tested on: LOX IMVI
CAKI-1 = tested on: CAKI-1
SF-268 = tested on: SF-268
MOLT-4 = tested on: MOLT-4
RXF 393 = tested on: RXF 393
HT-29 = tested on: HT-29
HCT-15 = tested on: HCT-15
786-0 = tested on: 786-0

CC(C)CC(N/C=C1/N=C(c2ccccc2)OC1=O)C(=O)O (stereo not drawn)
GI50 (OVCAR-4): > 100 µM (inactive) | GI50 (TK-10): > 100 µM (inactive) | GI50 (SF-539): > 100 µM (inactive) | GI50 (OVCAR-5): > 100 µM (inactive) | GI50 (SNB-19): > 100 µM (inactive) | GI50 (SR): > 100 µM (inactive) | GI50 (A549): > 100 µM (inactive) | GI50 (K562): > 100 µM (inactive) | GI50 (UACC-257): > 100 µM (inactive) | GI50 (M14): > 100 µM (inactive) | GI50 (IGROV-1): > 100 µM (inactive) | GI50 (LOX IMVI): > 100 µM (inactive) | GI50 (CAKI-1): > 100 µM (inactive) | GI50 (SF-268): > 100 µM (inactive) | GI50 (MOLT-4): > 100 µM (inactive) | GI50 (RXF 393): > 100 µM (inactive) | GI50 (HT-29): > 100 µM (inactive) | GI50 (HCT-15): > 100 µM | GI50 (786-0): > 100 µM (inactive)

O=C1NC2CCCCCC2C12CCCCC2 (stereo not drawn)
GI50 (OVCAR-4): > 100 µM (inactive) | GI50 (TK-10): > 100 µM (inactive) | GI50 (SF-539): > 100 µM (inactive) | GI50 (OVCAR-5): > 100 µM (inactive) | GI50 (SNB-19): > 100 µM (inactive) | GI50 (SR): > 100 µM (inactive) | GI50 (A549): > 100 µM (inactive) | GI50 (K562): > 100 µM (inactive) | GI50 (UACC-257): > 100 µM (inactive) | GI50 (M14): > 100 µM (inactive) | GI50 (IGROV-1): > 100 µM (inactive) | GI50 (LOX IMVI): > 100 µM (inactive) | GI50 (SF-268): > 100 µM (inactive) | GI50 (MOLT-4): > 100 µM (inactive) | GI50 (RXF 393): > 100 µM (inactive) | GI50 (HT-29): > 100 µM (inactive) | GI50 (HCT-15): > 100 µM

COC(=O)C#CCC1CCCC1C1SCCS1 (stereo not drawn)
GI50 (OVCAR-4): 71.4 µM (inactive) | GI50 (TK-10): > 100 µM (inactive) | GI50 (SF-539): 99.1 µM (inactive) | GI50 (OVCAR-5): > 100 µM (inactive) | GI50 (SNB-19): 91.4 µM (inactive) | GI50 (SR): 15.8 µM (inactive) | GI50 (A549): > 100 µM (inactive) | GI50 (K562): 43.5 µM (inactive) | GI50 (UACC-257): 51.3 µM (inactive) | GI50 (M14): > 100 µM (inactive) | GI50 (IGROV-1): > 100 µM (inactive) | GI50 (LOX IMVI): 50.2 µM (inactive) | GI50 (CAKI-1): > 100 µM (inactive) | GI50 (SF-268): > 100 µM (inactive) | GI50 (MOLT-4): 21.2 µM (inactive) | GI50 (RXF 393): > 100 µM (inactive) | GI50 (HT-29): > 100 µM (inactive) | GI50 (786-0): > 100 µM (inactive)

c1ccc(N/N=C2\NN=C(c3ccccc3)CS2)cc1
GI50 (TK-10): 11.5 µM (inactive) | GI50 (SF-539): 18.1 µM (inactive) | GI50 (OVCAR-5): 14.7 µM (inactive) | GI50 (SNB-19): 19.3 µM (inactive) | GI50 (SR): 4.3 µM (inactive) | GI50 (A549): 4.78 µM (inactive) | GI50 (K562): 3.34 µM (inactive) | GI50 (UACC-257): 16 µM (inactive) | GI50 (M14): 6.73 µM (inactive) | GI50 (IGROV-1): 15 µM (inactive) | GI50 (LOX IMVI): 4.39 µM (inactive) | GI50 (CAKI-1): 2.55 µM (inactive) | GI50 (SF-268): 5.18 µM (inactive) | GI50 (MOLT-4): 3.66 µM (inactive) | GI50 (RXF 393): 7.8 µM (inactive) | GI50 (HT-29): 6.89 µM (inactive) | GI50 (HCT-15): 4.59 µM | GI50 (786-0): 15.7 µM (inactive)

CC1CCC2C(C(=O)O[C@H]3C4CCO[C@@H](OC5OC(CO)C(O)C(O)C5O)C4[C@@]4(CO)O[C@@H]34)=CO[C@@H](OC3OC(CO)C(O)C(O)C3O)C12 (stereo partly drawn)
GI50 (TK-10): > 10 µM (inactive) | GI50 (SF-539): > 10 µM (inactive) | GI50 (OVCAR-5): > 10 µM (inactive) | GI50 (SNB-19): > 10 µM (inactive) | GI50 (SR): > 10 µM (inactive) | GI50 (A549): > 10 µM (inactive) | GI50 (K562): > 10 µM (inactive) | GI50 (UACC-257): > 10 µM (inactive) | GI50 (M14): > 10 µM (inactive) | GI50 (IGROV-1): > 10 µM (inactive) | GI50 (LOX IMVI): > 10 µM (inactive) | GI50 (SF-268): > 10 µM (inactive) | GI50 (MOLT-4): > 10 µM (inactive) | GI50 (RXF 393): > 10 µM (inactive) | GI50 (HT-29): > 10 µM (inactive) | GI50 (HCT-15): > 10 µM | GI50 (786-0): > 10 µM (inactive)

COC(=O)C1=C(O)c2cc3c(cc2[C@H](c2cc(OC)c(OC)c(OC)c2)C1C(=O)OC)OCO3 (stereo partly drawn)
GI50 (OVCAR-4): 30.2 µM (inactive) | GI50 (TK-10): 31.3 µM (inactive) | GI50 (SF-539): 20.7 µM (inactive) | GI50 (OVCAR-5): > 100 µM (inactive) | GI50 (SNB-19): > 100 µM (inactive) | GI50 (SR): 86.5 µM (inactive) | GI50 (A549): > 100 µM (inactive) | GI50 (K562): 72.1 µM (inactive) | GI50 (UACC-257): 47.3 µM (inactive) | GI50 (M14): 89.5 µM (inactive) | GI50 (IGROV-1): 48.6 µM (inactive) | GI50 (LOX IMVI): > 100 µM (inactive) | GI50 (CAKI-1): 25.2 µM (inactive) | GI50 (SF-268): 50.8 µM (inactive) | GI50 (MOLT-4): 58.9 µM (inactive) | GI50 (RXF 393): 30.2 µM (inactive) | GI50 (HT-29): 95.5 µM (inactive) | GI50 (HCT-15): > 100 µM | GI50 (786-0): 42.7 µM (inactive)
